Measured values published in patent US9809540B2, “Hydrobromide salt of N-(4-chloro-2-hydroxy-3-((3S)-3-piperidinylsulfonyl)phenyl-N'-(3-fluoro-2-methylphenyl)urea” (GlaxoSmithKline Intellectual Property (No.2) Limited, priority 2013, dated 2017).
Converted amounts (≈) assume the structure as drawn. Where a name gives a salt, the structure may show the parent alone. Values belong to the compound of their own block, whether it stands above or below them.

Legend:
[1] = Dissolution profiles (capsule) in pH1.6 simulated gastric fluid and pH 4 citrate buffer; type: physicochemical
Protocol: Dissolution profiles of the HBr salt (50 mg as free form) in a capsule compared with the free base in pH1.6 simulated gastric fluid and in pH 4 citrate buffer. The HBr salt is better.

[2] = Solubility in simulated gastric/intestinal fluids and pH media; type: physicochemical; details: for solubility at 0.5 h / solubility at 4 h / solubility at 24 h / solubility at 0.5 hr / solubility at 4 hr / solubility at 24 hr: thermodynamic from solid

Dissolution profile ([1]; 50 mg as free form in a capsule, pH1.6 simulated gastric fluid and pH 4 citrate buffer, FIGS. 1 and 2): better | Rate of dissolution at an elevated gastric pH ([1]; FIG. 2, elevated gastric pH): greatest rate of dissolution | Dissolution profile at higher pH as compared to the free base ([1]; higher pH): improved | Solubility ([2]; Phares FaSSIF pH 6.5, 4 hr): 272 µg/mL | solubility at 0.5 h ([2]; SGF (simulated gastric fluid), pH 1.6, simulated gastric fluid, Batch 1, SGF pH 1.6, 0.5 hr): 770 µg/mL | solubility at 4 h ([2]; SGF (simulated gastric fluid), pH 1.6, simulated gastric fluid, Batch 1, SGF pH 1.6, 4 hr): 787 µg/mL | solubility at 24 h ([2]; SGF (simulated gastric fluid), pH 1.6, simulated gastric fluid, Batch 1, SGF pH 1.6, 24 hr): 795 µg/mL | solubility at 0.5 h ([2]; SGF (simulated gastric fluid), pH 1.6, simulated gastric fluid, Batch 2, SGF pH 1.6, 0.5 hr): 414 µg/mL | solubility at 4 h ([2]; SGF (simulated gastric fluid), pH 1.6, simulated gastric fluid, Batch 2, SGF pH 1.6, 4 hr): 647 µg/mL | solubility at 24 h ([2]; SGF (simulated gastric fluid), pH 1.6, simulated gastric fluid, Batch 2, SGF pH 1.6, 24 hr): 800 µg/mL | solubility at 0.5 h ([2]; SGF (simulated gastric fluid), pH 1.6, simulated gastric fluid, Batch 3, SGF pH 1.6, 0.5 hr): 757 µg/mL | Solubility compared with the free base ([2]; at higher pH's and in simulated intestinal fluids): higher than the free base | solubility at 0.5 hr ([2]; fasted-state simulated intestinal fluid (Phares FaSSIF), pH 6.5, fassif, Batch 1, Phares FaSSif pH 6.5, 0.5 hr): 420 µg/mL | solubility at 4 hr ([2]; fasted-state simulated intestinal fluid (Phares FaSSIF), pH 6.5, fassif, Batch 1, Phares FaSSif pH 6.5, 4 hr): 384 µg/mL | solubility at 24 hr ([2]; fasted-state simulated intestinal fluid (Phares FaSSIF), pH 6.5, fassif, Batch 1, Phares FaSSif pH 6.5, 24 hr): 64 µg/mL | solubility at 0.5 hr ([2]; fasted-state simulated intestinal fluid (Phares FaSSIF), pH 6.5, fassif, Batch 2, Phares FaSSif pH 6.5, 0.5 hr): 270 µg/mL | solubility at 4 hr ([2]; fasted-state simulated intestinal fluid (Phares FaSSIF), pH 6.5, fassif, Batch 2, Phares FaSSif pH 6.5, 4 hr): 379 µg/mL | solubility at 24 hr ([2]; fasted-state simulated intestinal fluid (Phares FaSSIF), pH 6.5, fassif, Batch 2, Phares FaSSif pH 6.5, 24 hr): 79 µg/mL | solubility at 0.5 hr ([2]; fasted-state simulated intestinal fluid (Phares FaSSIF), pH 6.5, fassif, Batch 3, Phares FaSSif pH 6.5, 0.5 hr): 459 µg/mL | solubility at 4 hr ([2]; fasted-state simulated intestinal fluid (Phares FaSSIF), pH 6.5, fassif, Batch 3, Phares FaSSif pH 6.5, 4 hr): 227 µg/mL | solubility at 24 hr ([2]; fasted-state simulated intestinal fluid (Phares FaSSIF), pH 6.5, fassif, Batch 3, Phares FaSSif pH 6.5, 24 hr): 56 µg/mL | solubility at 0.5 hr ([2]; fed-state simulated intestinal fluid (Phares FeSSIF), fessif, Batch 1, Phares FeSSIF pH .5, 0.5 hr): 838 µg/mL | solubility at 4 hr ([2]; fed-state simulated intestinal fluid (Phares FeSSIF), fessif, Batch 1, Phares FeSSIF pH .5, 4 hr): 833 µg/mL | solubility at 24 hr ([2]; fed-state simulated intestinal fluid (Phares FeSSIF), fessif, Batch 1, Phares FeSSIF pH .5, 24 hr): 788 µg/mL | solubility at 0.5 hr ([2]; fed-state simulated intestinal fluid (Phares FeSSIF), fessif, Batch 2, Phares FeSSIF pH .5, 0.5 hr): 478 µg/mL | solubility at 4 hr ([2]; fed-state simulated intestinal fluid (Phares FeSSIF), fessif, Batch 2, Phares FeSSIF pH .5, 4 hr): 846 µg/mL | solubility at 24 hr ([2]; fed-state simulated intestinal fluid (Phares FeSSIF), fessif, Batch 2, Phares FeSSIF pH .5, 24 hr): 834 µg/mL | solubility at 0.5 hr ([2]; fed-state simulated intestinal fluid (Phares FeSSIF), fessif, Batch 3, Phares FeSSIF pH .5, 0.5 hr): 724 µg/mL | solubility at 4 hr ([2]; fed-state simulated intestinal fluid (Phares FeSSIF), pH 6.5, fessif, Batch 3, Phares FeSSIF pH .5, 4 hr): 841 µg/mL | solubility at 24 hr ([2]; fed-state simulated intestinal fluid (Phares FeSSIF), pH 6.5, fessif, Batch 3, Phares FeSSIF pH .5, 24 hr): 340 µg/mL | Solubility at higher pH as compared to the free base ([2]; higher pH): improved | solubility at 0.5 h ([2]; pH 2, aqueous buffer, Batch 3, pH 2.0, 0.5 hr): 605 µg/mL | solubility at 4 h ([2]; pH 2, aqueous buffer, Batch 3, pH 2.0, 4 hr): 635 µg/mL | solubility at 24 h ([2]; pH 2, aqueous buffer, Batch 3, pH 2.0, 24 hr): 609 µg/mL | solubility at 24 h ([2]; pH 2, aqueous buffer, pH 2.0, 24 hr): 609 µg/mL | solubility at 0.5 h ([2]; pH 4, aqueous buffer, Batch 3, pH 4.0, 0.5 hr): 685 µg/mL | solubility at 4 h ([2]; pH 4, aqueous buffer, Batch 3, pH 4.0, 4 hr): 670 µg/mL | solubility at 24 h ([2]; pH 4, aqueous buffer, Batch 3, pH 4.0, 24 hr): 609 µg/mL | solubility at 4 h ([2]; pH 4, aqueous buffer, pH 4.0, 4 hr): 670 µg/mL | solubility at 0.5 h ([2]; pH 6, aqueous buffer, Batch 3, pH 6.0, 0.5 hr): 194 µg/mL | solubility at 4 h ([2]; pH 6, aqueous buffer, Batch 3, pH 6.0, 4 hr): 13 µg/mL | solubility at 24 h ([2]; pH 6, aqueous buffer, Batch 3, pH 6.0, 24 hr): 5 µg/mL | solubility at 0.5 h ([2]; pH 8, aqueous buffer, Batch 3, pH 8.0, 0.5 hr): 52 µg/mL | solubility at 4 h ([2]; pH 8, aqueous buffer, Batch 3, pH 8.0, 4 hr): 13 µg/mL | solubility at 24 h ([2]; pH 8, aqueous buffer, Batch 3, pH 8.0, 24 hr): 8 µg/mL | solubility at 0.5 h ([2]; pH 8, aqueous buffer, pH 8.0, 0.5 hr): 52 µg/mL | solubility at 4 h ([2]; pH 8, aqueous buffer, pH 8.0, 4 hr): 13 µg/mL | solubility at 24 h ([2]; pH 8, aqueous buffer, pH 8.0, 24 hr): 8 µg/mL | solubility at 4 hr ([2]; simulated gastric fluid (SGF), pH 1.6, simulated gastric fluid, Batch 3, SGF pH 1.6, 4 hr): 795 µg/mL | solubility at 24 hr ([2]; simulated gastric fluid (SGF), pH 1.6, simulated gastric fluid, Batch 3, SGF pH 1.6, 24 hr): 779 µg/mL
SMILES: Cc1c(F)cccc1NC(=O)Nc1ccc(Cl)c(S(=O)(=O)[C@H]2CCCNC2)c1O [HBr Salt, hydrobromide salt of the enantiomer N-{4-chloro-2-hydroxy-3-[(3S)-3-piperidinylsulfonyl]phenyl}-N′-(3-fluoro-2-methylphenyl)urea]
Dissolution rate at low gastric pH ([1]; FIG. 1, low gastric pH): enhanced dissolution rate without gelling | Solubility in simulated intestinal fluids over time ([2]; simulated intestinal fluids, compared with free base): does reduce with time but is still much higher than the equivalent free base solubility

Solubility ([2]; Phares FaSSIF pH 6.5, 0.5 hr): 9 µg/mL (≈ 20.4 µM) | Solubility ([2]; Phares FaSSIF pH 6.5, 4 hr): 18 µg/mL (≈ 40.7 µM) | Solubility ([2]; Phares FaSSIF pH 6.5, 24 hr): 10 µg/mL (≈ 22.6 µM) | Solubility ([2]; Phares FeSSIF pH 6.5, 0.5 hr): 19 µg/mL (≈ 43 µM) | Solubility ([2]; Phares FeSSIF pH 6.5, 4 hr): 24 µg/mL (≈ 54.3 µM) | Solubility ([2]; Phares FeSSIF pH 6.5, 24 hr): 25 µg/mL (≈ 56.6 µM) | solubility at 0.5 h ([2]; SGF (simulated gastric fluid), pH 1.6, simulated gastric fluid, SGF pH1.6, 0.5 hr): 715 µg/mL (≈ 1620 µM) | solubility at 4 h ([2]; SGF (simulated gastric fluid), pH 1.6, simulated gastric fluid, SGF pH1.6, 4 hr): 808 µg/mL (≈ 1830 µM) | solubility at 24 h ([2]; SGF (simulated gastric fluid), pH 1.6, simulated gastric fluid, SGF pH1.6, 24 hr): 842 µg/mL (≈ 1910 µM) | Solubility ([2]; pH 2.0, 24 hr): 697 µg/mL (≈ 1580 µM) | solubility at 0.5 h ([2]; pH 2, aqueous buffer, pH 2.0, 0.5 hr): 601 µg/mL (≈ 1360 µM) | solubility at 4 h ([2]; pH 2, aqueous buffer, pH 2.0, 4 hr): 662 µg/mL (≈ 1500 µM) | Solubility ([2]; pH 4.0, 0.5 hr): 21 µg/mL (≈ 47.5 µM) | Solubility ([2]; pH 4.0, 4 hr): 23 µg/mL (≈ 52 µM) | Solubility ([2]; pH 4.0, 24 hr): 24 µg/mL (≈ 54.3 µM) | solubility at 24 h ([2]; pH 6, aqueous buffer, pH 6.0, 24 hr): 4 µg/mL (≈ 9.05 µM) | Solubility ([2]; pH 8.0, 0.5 hr): 5 µg/mL (≈ 11.3 µM) | Solubility ([2]; pH 8.0, 4 hr): 5 µg/mL (≈ 11.3 µM) | Solubility ([2]; pH 8.0, 24 hr): 5 µg/mL (≈ 11.3 µM)
SMILES: Cc1c(F)cccc1NC(=O)Nc1ccc(Cl)c(S(=O)(=O)[C@H]2CCCNC2)c1O [Micronised free base, N-{4-chloro-2-hydroxy-3-[(3S)-3-piperidinylsulfonyl]phenyl}-N′-(3-fluoro-2-methylphenyl) urea, reference compound]
